The kinase profiling compilation of Christmann-Franck et al. (2016)

Key:
Test in all cases: KINOMEscan competition binding
Conditions in all cases: compound 10.0 µM
[1] = target: BMPR1A (human) (UniProt P36894)
[2] = target: CAMK1 (human) (UniProt Q14012)
[3] = target: CHEK2 (human) (UniProt O96017)
[4] = target: IRAK3 (human) (UniProt Q9Y616)
[5] = target: PDGFRA (human) (UniProt P16234)
[6] = target: PKN1 (human) (UniProt Q16512)
[7] = tested on: RET (human), P07949 [V804M]
[8] = target: FLT4 (human) (UniProt P35916)
Chain of FLT4 (human) (P35916 whole entry, looked up): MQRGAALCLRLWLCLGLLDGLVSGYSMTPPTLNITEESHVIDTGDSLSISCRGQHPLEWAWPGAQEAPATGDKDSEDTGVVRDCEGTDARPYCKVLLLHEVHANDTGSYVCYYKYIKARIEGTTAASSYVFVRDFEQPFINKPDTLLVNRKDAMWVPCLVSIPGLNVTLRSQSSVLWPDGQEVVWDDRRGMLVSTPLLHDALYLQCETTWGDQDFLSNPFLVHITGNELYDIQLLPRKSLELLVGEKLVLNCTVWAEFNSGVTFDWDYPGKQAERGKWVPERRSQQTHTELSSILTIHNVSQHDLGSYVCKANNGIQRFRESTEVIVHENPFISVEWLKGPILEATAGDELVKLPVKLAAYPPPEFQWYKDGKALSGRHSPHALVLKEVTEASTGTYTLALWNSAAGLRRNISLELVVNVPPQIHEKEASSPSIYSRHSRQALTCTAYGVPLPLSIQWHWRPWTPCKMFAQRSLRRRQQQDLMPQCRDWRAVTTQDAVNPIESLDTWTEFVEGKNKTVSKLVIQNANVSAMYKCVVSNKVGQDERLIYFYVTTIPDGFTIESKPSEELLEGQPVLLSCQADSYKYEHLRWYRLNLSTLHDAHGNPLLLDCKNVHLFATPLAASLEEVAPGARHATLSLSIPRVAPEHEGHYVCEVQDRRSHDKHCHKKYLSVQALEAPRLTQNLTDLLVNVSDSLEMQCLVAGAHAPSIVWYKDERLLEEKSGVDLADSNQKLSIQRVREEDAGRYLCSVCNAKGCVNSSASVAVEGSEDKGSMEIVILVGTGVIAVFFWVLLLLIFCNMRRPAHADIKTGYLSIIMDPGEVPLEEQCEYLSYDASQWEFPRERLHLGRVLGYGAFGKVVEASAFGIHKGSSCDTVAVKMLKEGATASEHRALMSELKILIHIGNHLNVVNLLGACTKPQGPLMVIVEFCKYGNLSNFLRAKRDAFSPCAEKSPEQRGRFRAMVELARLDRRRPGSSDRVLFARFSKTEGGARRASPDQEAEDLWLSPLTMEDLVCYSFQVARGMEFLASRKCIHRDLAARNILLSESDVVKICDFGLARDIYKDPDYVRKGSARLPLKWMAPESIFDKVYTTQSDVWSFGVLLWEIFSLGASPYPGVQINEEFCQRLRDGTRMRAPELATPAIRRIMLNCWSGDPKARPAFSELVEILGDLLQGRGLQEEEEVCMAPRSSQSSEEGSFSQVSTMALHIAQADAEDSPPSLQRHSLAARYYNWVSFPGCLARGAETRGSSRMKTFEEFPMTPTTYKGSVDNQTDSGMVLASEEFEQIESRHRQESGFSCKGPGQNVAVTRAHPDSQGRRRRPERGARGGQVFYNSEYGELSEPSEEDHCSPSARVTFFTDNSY

[9] = target: AURKA (human) (UniProt O14965)
[10] = target: MERTK (human) (UniProt Q12866)
[11] = target: NEK9 (human) (UniProt Q8TD19)
[12] = target: CDK17 (human) (UniProt Q00537)
[13] = target: CDK5 (human) (UniProt Q00535)
[14] = target: MAPKAPK2 (human) (UniProt P49137)
[15] = target: PIK3CA (human) (UniProt P42336)
[16] = target: ZAP70 (human) (UniProt P43403)
[17] = target: DDR2 (human) (UniProt Q16832)
[18] = tested on: EGFR (human), P00533 [G719C; 746-750 del]

Chain of PDGFRA (human) (P16234 whole entry, looked up): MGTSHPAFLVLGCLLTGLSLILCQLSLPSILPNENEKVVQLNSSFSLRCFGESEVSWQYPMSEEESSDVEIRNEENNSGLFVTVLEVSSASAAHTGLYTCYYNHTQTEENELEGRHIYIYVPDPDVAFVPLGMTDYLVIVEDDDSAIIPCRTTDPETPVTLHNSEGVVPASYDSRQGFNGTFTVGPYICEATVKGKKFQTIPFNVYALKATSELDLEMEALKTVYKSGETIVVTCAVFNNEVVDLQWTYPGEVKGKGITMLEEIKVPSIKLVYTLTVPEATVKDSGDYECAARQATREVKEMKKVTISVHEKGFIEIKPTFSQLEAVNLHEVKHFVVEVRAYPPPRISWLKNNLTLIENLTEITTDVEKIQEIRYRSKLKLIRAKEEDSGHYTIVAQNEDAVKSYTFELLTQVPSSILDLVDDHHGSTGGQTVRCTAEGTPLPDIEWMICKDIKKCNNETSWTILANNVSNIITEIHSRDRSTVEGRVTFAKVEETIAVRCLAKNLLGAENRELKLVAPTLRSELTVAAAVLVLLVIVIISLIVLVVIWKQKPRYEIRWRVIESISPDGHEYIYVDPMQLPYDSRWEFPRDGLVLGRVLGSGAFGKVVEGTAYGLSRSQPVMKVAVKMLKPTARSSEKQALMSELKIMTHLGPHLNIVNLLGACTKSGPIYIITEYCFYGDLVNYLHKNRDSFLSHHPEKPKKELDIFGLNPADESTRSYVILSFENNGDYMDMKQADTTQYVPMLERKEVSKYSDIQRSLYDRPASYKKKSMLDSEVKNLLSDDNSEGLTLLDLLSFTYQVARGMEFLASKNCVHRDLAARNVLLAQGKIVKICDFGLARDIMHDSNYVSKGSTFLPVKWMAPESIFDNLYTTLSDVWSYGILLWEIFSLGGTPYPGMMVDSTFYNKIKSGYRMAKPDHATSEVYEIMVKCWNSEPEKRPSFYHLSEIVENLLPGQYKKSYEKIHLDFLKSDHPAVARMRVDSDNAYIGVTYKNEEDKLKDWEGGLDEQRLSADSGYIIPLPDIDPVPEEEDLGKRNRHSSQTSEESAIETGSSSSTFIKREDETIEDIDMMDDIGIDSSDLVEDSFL
Chain of BMPR1A (human) (P36894 whole entry, looked up): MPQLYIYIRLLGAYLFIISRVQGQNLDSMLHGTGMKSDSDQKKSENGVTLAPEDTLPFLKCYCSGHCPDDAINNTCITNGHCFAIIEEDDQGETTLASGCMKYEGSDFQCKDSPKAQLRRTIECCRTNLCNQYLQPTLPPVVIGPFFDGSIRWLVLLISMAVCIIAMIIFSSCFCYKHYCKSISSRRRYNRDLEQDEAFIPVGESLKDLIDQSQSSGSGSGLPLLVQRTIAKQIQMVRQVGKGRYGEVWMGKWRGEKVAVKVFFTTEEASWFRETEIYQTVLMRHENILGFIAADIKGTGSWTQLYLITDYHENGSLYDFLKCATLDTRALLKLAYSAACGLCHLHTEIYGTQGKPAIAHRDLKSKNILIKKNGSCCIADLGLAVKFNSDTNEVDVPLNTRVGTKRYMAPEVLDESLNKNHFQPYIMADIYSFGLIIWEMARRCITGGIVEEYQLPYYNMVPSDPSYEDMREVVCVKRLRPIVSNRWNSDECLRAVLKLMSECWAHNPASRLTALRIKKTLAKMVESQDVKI
Chain of PKN1 (human) (Q16512 whole entry, looked up): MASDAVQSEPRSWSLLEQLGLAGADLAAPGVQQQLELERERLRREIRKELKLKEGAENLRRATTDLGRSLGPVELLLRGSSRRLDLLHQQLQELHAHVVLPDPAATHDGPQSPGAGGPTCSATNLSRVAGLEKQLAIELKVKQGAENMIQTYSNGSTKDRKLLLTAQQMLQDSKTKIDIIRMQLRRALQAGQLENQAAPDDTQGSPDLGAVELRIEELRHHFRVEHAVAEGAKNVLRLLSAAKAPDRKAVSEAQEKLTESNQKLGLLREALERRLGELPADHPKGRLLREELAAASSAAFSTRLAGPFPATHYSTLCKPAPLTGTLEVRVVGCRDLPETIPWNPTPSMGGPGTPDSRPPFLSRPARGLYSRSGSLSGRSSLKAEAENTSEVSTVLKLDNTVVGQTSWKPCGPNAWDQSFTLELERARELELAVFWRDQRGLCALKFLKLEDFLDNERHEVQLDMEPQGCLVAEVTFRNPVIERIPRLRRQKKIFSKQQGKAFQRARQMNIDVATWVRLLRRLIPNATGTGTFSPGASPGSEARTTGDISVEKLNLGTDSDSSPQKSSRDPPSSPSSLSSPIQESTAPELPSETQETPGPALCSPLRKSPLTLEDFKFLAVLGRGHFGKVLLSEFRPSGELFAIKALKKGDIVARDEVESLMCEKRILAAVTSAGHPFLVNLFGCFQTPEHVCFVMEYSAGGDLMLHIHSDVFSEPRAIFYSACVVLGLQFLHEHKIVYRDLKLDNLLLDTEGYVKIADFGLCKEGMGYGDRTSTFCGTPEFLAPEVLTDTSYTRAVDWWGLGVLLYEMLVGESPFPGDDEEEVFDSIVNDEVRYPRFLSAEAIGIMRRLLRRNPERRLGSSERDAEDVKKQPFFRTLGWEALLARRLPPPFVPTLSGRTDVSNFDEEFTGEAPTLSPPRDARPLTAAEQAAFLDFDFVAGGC
Chain of IRAK3 (human) (Q9Y616 whole entry, looked up): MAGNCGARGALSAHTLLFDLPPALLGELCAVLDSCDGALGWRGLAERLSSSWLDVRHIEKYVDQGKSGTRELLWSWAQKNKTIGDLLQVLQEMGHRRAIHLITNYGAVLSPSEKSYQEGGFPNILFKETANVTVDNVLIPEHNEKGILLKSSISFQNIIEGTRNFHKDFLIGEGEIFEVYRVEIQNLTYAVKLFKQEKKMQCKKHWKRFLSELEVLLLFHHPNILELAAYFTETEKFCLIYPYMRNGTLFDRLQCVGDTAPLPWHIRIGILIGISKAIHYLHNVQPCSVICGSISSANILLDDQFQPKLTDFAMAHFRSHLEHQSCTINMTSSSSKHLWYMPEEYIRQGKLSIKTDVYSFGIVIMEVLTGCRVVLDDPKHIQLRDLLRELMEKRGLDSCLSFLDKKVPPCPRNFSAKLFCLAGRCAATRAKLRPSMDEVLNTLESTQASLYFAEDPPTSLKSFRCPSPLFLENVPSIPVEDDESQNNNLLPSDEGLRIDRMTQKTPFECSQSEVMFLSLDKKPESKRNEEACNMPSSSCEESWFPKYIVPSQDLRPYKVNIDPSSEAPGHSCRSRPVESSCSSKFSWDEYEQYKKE
Chain of CHEK2 (human) (O96017 whole entry, looked up): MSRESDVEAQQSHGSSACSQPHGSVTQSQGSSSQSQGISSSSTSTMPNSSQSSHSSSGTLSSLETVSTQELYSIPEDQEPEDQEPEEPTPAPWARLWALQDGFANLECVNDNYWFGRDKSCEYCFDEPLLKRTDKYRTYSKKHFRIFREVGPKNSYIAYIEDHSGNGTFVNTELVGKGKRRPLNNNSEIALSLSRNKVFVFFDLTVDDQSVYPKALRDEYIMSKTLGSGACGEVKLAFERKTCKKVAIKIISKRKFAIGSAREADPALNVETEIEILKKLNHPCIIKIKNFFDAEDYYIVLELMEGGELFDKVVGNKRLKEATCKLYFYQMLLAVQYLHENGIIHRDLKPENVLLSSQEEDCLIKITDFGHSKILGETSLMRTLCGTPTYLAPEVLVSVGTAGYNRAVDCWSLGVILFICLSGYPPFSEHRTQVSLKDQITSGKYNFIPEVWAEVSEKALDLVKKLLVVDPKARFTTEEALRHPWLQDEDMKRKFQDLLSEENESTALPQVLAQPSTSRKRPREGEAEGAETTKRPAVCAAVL

SMILES: N=C1NC(=O)/C(=C/c2ccc(-c3cncc4ccccc34)o2)S1
- kinase still bound, per cent of control [1]: 33%
- kinase still bound, per cent of control [2]: 8.4%
- kinase still bound, per cent of control [3]: 33%
- kinase still bound, per cent of control [4]: 11%
- kinase still bound, per cent of control [5]: 26%
- kinase still bound, per cent of control [6]: 28%
- kinase still bound, per cent of control [7]: 16%

SMILES: CS(=O)(=O)Nc1ccc(-c2cncc(/C=C3\SC(=N)NC3=O)c2)cc1
- kinase still bound, per cent of control [1]: 0.95%
- kinase still bound, per cent of control [8]: 28%

SMILES: O=C1NC(=S)S/C1=C\c1ccc(-c2cncc3ccccc23)o1
- kinase still bound, per cent of control [2]: 27%
- kinase still bound, per cent of control [3]: 14%
- kinase still bound, per cent of control [8]: 28%
- kinase still bound, per cent of control [4]: 7.9%

SMILES: CN1C(=O)[C@H]2CCC[C@H]2N(C2CCCC2)c2nc(Nc3ccc(C(N)=O)cc3)ncc21
- kinase still bound, per cent of control [9]: 7.6%
- kinase still bound, per cent of control [10]: 6.8%
- kinase still bound, per cent of control [11]: 8.9%
- kinase still bound, per cent of control [6]: 30%

SMILES: N=C1NC(=O)/C(=C/c2ccc(-c3ccc(C(N)=O)cc3O)o2)S1
- kinase still bound, per cent of control [12]: 28%
- kinase still bound, per cent of control [13]: 27%
- kinase still bound, per cent of control [14]: 25%
- kinase still bound, per cent of control [15]: 9.2%
- kinase still bound, per cent of control [16]: 25%

SMILES: CS(=O)(=O)Nc1ccc(-c2ncc(/C=C3\SC(=N)NC3=O)s2)cc1
- kinase still bound, per cent of control [8]: 3.6%
- kinase still bound, per cent of control [5]: 26%

SMILES: N=C1NC(=O)/C(=C/c2ccc(-c3ccc(F)cc3O)o2)S1
- kinase still bound, per cent of control [13]: 12%

SMILES: Nc1cccc(-c2cc(/C=C3\SC(=O)NC3=O)c[nH]c2=O)c1
- kinase still bound, per cent of control [17]: 33%
- kinase still bound, per cent of control [18]: 30%

SMILES: CS(=O)(=O)Nc1ccc(-c2cc(/C=C3\SC(=N)NC3=O)c[nH]c2=O)cc1
- kinase still bound, per cent of control [1]: 8%
- kinase still bound, per cent of control [5]: 8%
